pIC50: −log10 of the molar value.
Legend:
Eimeria acervulina [1] = assay: Anticoccidial activity against Eimeria acervulina in chickens assessed as reduction of oocysts at 6 ppm measured after 8 days by ExMAC assay relative to untreated control; format: functional; design: scale not given: the % may be the effect or the level left
Eimeria acervulina [2] = assay: Anticoccidial activity against Eimeria acervulina in chickens assessed as reduction of oocysts at 8 ppm measured after 8 days by ExMAC assay relative to untreated control; format: functional; design: scale not given: the % may be the effect or the level left
Eimeria acervulina [3] = assay: Anticoccidial activity against Eimeria acervulina in chickens assessed as reduction of oocysts at 10 ppm measured after 8 days by ExMAC assay relative to untreated control; format: functional; design: scale not given: the % may be the effect or the level left
Eimeria mitis [4] = assay: Anticoccidial activity against Eimeria mitis in chickens assessed as reduction of oocysts at 25 ppm measured after 8 days by ExMAC assay relative to untreated control; format: functional; design: scale not given: the % may be the effect or the level left
Eimeria acervulina [5] = assay: Anticoccidial activity against Eimeria acervulina in chickens assessed as reduction of oocysts at 25 ppm measured after 8 days by ExMAC assay relative to untreated control; format: functional; design: scale not given: the % may be the effect or the level left
Eimeria maxima [6] = assay: Anticoccidial activity against Eimeria maxima in chickens assessed as reduction of oocysts at 12.5 ppm measured after 8 days by ExMAC assay relative to untreated control; format: functional; design: scale not given: the % may be the effect or the level left
[7] = target: cGMP-dependent protein kinase (Eimeria tenella, UniProt Q8MMZ8); assay: Inhibition of Eimeria tenella cGMP-dependent protein kinase
Sequence of cGMP-dependent protein kinase (Q8MMZ8 whole entry): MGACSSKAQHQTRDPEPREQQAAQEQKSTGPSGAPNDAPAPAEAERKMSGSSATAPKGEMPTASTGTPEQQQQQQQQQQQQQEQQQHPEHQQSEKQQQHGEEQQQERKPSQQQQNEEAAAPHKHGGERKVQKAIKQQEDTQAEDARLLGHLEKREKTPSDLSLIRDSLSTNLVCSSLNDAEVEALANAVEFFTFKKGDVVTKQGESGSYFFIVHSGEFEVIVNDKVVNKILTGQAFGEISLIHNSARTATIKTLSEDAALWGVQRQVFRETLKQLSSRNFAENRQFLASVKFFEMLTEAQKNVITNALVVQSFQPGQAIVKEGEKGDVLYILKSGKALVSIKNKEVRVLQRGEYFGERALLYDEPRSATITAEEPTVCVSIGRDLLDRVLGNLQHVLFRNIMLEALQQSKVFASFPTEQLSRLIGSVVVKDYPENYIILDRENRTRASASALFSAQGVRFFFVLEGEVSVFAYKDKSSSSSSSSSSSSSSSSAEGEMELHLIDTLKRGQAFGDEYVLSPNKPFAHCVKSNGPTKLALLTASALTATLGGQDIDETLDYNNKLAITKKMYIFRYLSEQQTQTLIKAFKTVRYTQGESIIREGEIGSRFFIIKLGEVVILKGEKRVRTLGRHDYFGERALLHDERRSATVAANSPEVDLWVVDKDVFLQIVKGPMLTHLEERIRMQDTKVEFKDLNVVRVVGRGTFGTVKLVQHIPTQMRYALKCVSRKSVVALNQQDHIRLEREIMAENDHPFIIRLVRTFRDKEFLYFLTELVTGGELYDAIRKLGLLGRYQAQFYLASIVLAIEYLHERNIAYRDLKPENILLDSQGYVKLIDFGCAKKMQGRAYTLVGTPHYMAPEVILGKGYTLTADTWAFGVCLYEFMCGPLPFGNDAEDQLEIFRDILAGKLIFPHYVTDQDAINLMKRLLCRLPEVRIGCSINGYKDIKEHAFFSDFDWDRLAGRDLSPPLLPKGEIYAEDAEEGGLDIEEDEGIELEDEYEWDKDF

Eimeria tenella [8] = assay: Anticoccidial activity against Eimeria tenella in chickens assessed as reduction of oocysts at 8 ppm measured after 8 days by ExMAC assay relative to untreated control; format: functional; design: scale not given: the % may be the effect or the level left
Eimeria mitis [9] = assay: Anticoccidial activity against Eimeria mitis in chickens assessed as reduction of oocysts at 12.5 ppm measured after 8 days by ExMAC assay relative to untreated control; format: functional; design: scale not given: the % may be the effect or the level left
Eimeria mitis [10] = assay: Anticoccidial activity against Eimeria mitis in chickens assessed as reduction of oocysts at 8 ppm measured after 8 days by ExMAC assay relative to untreated control; format: functional; design: scale not given: the % may be the effect or the level left
Eimeria maxima [11] = assay: Anticoccidial activity against Eimeria maxima in chickens assessed as reduction of oocysts at 10 ppm measured after 8 days by ExMAC assay relative to untreated control; format: functional; design: scale not given: the % may be the effect or the level left
Eimeria tenella [12] = assay: Anticoccidial activity against Eimeria tenella in chickens assessed as reduction of oocysts at 25 ppm measured after 8 days by ExMAC assay relative to untreated control; format: functional; design: scale not given: the % may be the effect or the level left
Eimeria maxima [13] = assay: Anticoccidial activity against Eimeria maxima in chickens assessed as reduction of oocysts at 25 ppm measured after 8 days by ExMAC assay relative to untreated control; format: functional; design: scale not given: the % may be the effect or the level left
Eimeria maxima [14] = assay: Anticoccidial activity against Eimeria maxima in chickens assessed as reduction of oocysts at 6 ppm measured after 8 days by ExMAC assay relative to untreated control; format: functional; design: scale not given: the % may be the effect or the level left
Eimeria tenella [15] = assay: Anticoccidial activity against Eimeria tenella in chickens assessed as reduction of oocysts at 6 ppm measured after 8 days by ExMAC assay relative to untreated control; format: functional; design: scale not given: the % may be the effect or the level left
Eimeria tenella [16] = assay: Anticoccidial activity against Eimeria tenella in chickens assessed as reduction of oocysts at 10 ppm measured after 8 days by ExMAC assay relative to untreated control; format: functional; design: scale not given: the % may be the effect or the level left
Eimeria maxima [17] = assay: Anticoccidial activity against Eimeria maxima in chickens assessed as reduction of oocysts at 8 ppm measured after 8 days by ExMAC assay relative to untreated control; format: functional; design: scale not given: the % may be the effect or the level left
Eimeria acervulina [18] = assay: Anticoccidial activity against Eimeria acervulina in chickens assessed as reduction of oocysts at 12.5 ppm measured after 8 days by ExMAC assay relative to untreated control; format: functional; design: scale not given: the % may be the effect or the level left
Eimeria mitis [19] = assay: Anticoccidial activity against Eimeria mitis in chickens assessed as reduction of oocysts at 6 ppm measured after 8 days by ExMAC assay relative to untreated control; format: functional; design: scale not given: the % may be the effect or the level left
Eimeria mitis [20] = assay: Anticoccidial activity against Eimeria mitis in chickens assessed as reduction of oocysts at 10 ppm measured after 8 days by ExMAC assay relative to untreated control; format: functional; design: scale not given: the % may be the effect or the level left
Eimeria tenella [21] = assay: Anticoccidial activity against Eimeria tenella in chickens assessed as reduction of oocysts at 12.5 ppm measured after 8 days by ExMAC assay relative to untreated control; format: functional; design: scale not given: the % may be the effect or the level left
Eimeria mitis [22] = assay: Anticoccidial activity against Eimeria mitis in chickens assessed as reduction of oocysts at 3 ppm measured after 8 days by ExMAC assay relative to untreated control; format: functional; design: scale not given: the % may be the effect or the level left
Eimeria acervulina [23] = assay: Anticoccidial activity against Eimeria acervulina in chickens assessed as reduction of oocysts at 12 ppm measured after 8 days by ExMAC assay relative to untreated control; format: functional; design: scale not given: the % may be the effect or the level left
Eimeria mitis [24] = assay: Anticoccidial activity against Eimeria mitis in chickens assessed as reduction of oocysts at 12 ppm measured after 8 days by ExMAC assay relative to untreated control; format: functional; design: scale not given: the % may be the effect or the level left
Eimeria tenella [25] = assay: Anticoccidial activity against Eimeria tenella in chickens assessed as reduction of oocysts at 3 ppm measured after 8 days by ExMAC assay relative to untreated control; format: functional; design: scale not given: the % may be the effect or the level left
Eimeria maxima [26] = assay: Anticoccidial activity against Eimeria maxima in chickens assessed as reduction of oocysts at 12 ppm measured after 8 days by ExMAC assay relative to untreated control; format: functional; design: scale not given: the % may be the effect or the level left
Eimeria tenella [27] = assay: Anticoccidial activity against Eimeria tenella in chickens assessed as reduction of oocysts at 12 ppm measured after 8 days by ExMAC assay relative to untreated control; format: functional; design: scale not given: the % may be the effect or the level left
Eimeria acervulina [28] = assay: Anticoccidial activity against Eimeria acervulina in chickens assessed as reduction of oocysts at 3 ppm measured after 8 days by ExMAC assay relative to untreated control; format: functional; design: scale not given: the % may be the effect or the level left
Eimeria maxima [29] = assay: Anticoccidial activity against Eimeria maxima in chickens assessed as reduction of oocysts at 3 ppm measured after 8 days by ExMAC assay relative to untreated control; format: functional; design: scale not given: the % may be the effect or the level left
Eimeria mitis [30] = assay: Anticoccidial activity against Eimeria mitis in chickens assessed as reduction of oocysts at 6.25 ppm measured after 8 days by ExMAC assay relative to untreated control; format: functional; design: scale not given: the % may be the effect or the level left
Eimeria tenella [31] = assay: Anticoccidial activity against Eimeria tenella in chickens assessed as reduction of oocysts at 6.25 ppm measured after 8 days by ExMAC assay relative to untreated control; format: functional; design: scale not given: the % may be the effect or the level left
Eimeria maxima [32] = assay: Anticoccidial activity against Eimeria maxima in chickens assessed as reduction of oocysts at 6.25 ppm measured after 8 days by ExMAC assay relative to untreated control; format: functional; design: scale not given: the % may be the effect or the level left
Eimeria acervulina [33] = assay: Anticoccidial activity against Eimeria acervulina in chickens assessed as reduction of oocysts at 6.25 ppm measured after 8 days by ExMAC assay relative to untreated control; format: functional; design: scale not given: the % may be the effect or the level left

SMILES	Activity (Eimeria acervulina [1]) [%]	Activity (Eimeria acervulina [2]) [%]	Activity (Eimeria mitis [4]) [%]	Activity (Eimeria acervulina [5]) [%]	Activity (Eimeria maxima [6]) [%]	pIC50 [7]	Activity (Eimeria tenella [8]) [%]	Activity (Eimeria mitis [9]) [%]	Activity (Eimeria mitis [10]) [%]	Activity (Eimeria tenella [12]) [%]	Activity (Eimeria maxima [13]) [%]	Activity (Eimeria maxima [14]) [%]	Activity (Eimeria tenella [15]) [%]	Activity (Eimeria maxima [17]) [%]	Activity (Eimeria acervulina [18]) [%]	Activity (Eimeria tenella [21]) [%]	Activity (Eimeria mitis [30]) [%]	Activity (Eimeria tenella [31]) [%]	Activity (Eimeria maxima [32]) [%]	Activity (Eimeria acervulina [33]) [%]	further results
CN1CCC(c2ccn3c(-c4ccnc(N)n4)c(-c4ccc(F)cc4)nc3c2)CC1	80	80	100	100	100	10.36	100	100	80	100	100	100	100	100	100	100	–	–	–	–	Activity (Eimeria acervulina [3]): 100%; Activity (Eimeria maxima [11]): 100%; Activity (Eimeria tenella [16]): 100%; Activity (Eimeria mitis [19]): 80%; Activity (Eimeria mitis [20]): 100%
CC(C)(N)c1ccn2c(-c3ccnc(N)n3)c(-c3ccc(F)cc3)nc2c1	80	–	–	–	–	9.84	–	–	–	–	–	80	80	–	–	–	–	–	–	–	Activity (Eimeria mitis [22]): <50%; Activity (Eimeria acervulina [23]): 80%; Activity (Eimeria mitis [24]): <50%; Activity (Eimeria tenella [25]): <50%; Activity (Eimeria maxima [26]): 100%; Activity (Eimeria tenella [27]): 100%; Activity (Eimeria acervulina [28]): 50%; Activity (Eimeria maxima [29]): 80%; Activity (Eimeria mitis [19]): <50%
CN(C)C(C)(C)c1ccn2c(-c3ccnc(N)n3)c(-c3ccc(F)cc3)nc2c1	–	100	–	–	–	9.96	100	–	<50	–	–	–	–	100	–	–	80	100	80	100	–
CC(C)CN1CCC(c2ccn3c(-c4ccnc(N)n4)c(-c4ccc(F)cc4)nc3c2)CC1	–	–	80	100	100	9.92	–	80	–	80	80	–	–	–	80	100	<50	50	<50	80	–
CN(C)CCc1ccn2c(-c3ccnc(N)n3)c(-c3ccc(F)cc3)nc2c1	–	–	100	100	100	9.34	–	80	–	100	100	–	–	–	100	100	<50	100	50	80	–
CCC(c1ccn2c(-c3ccnc(N)n3)c(-c3ccc(F)cc3)nc2c1)N(C)C (stereo not drawn)	–	80	–	–	100	9.89	50	100	<50	–	–	–	–	50	100	100	–	–	–	–	–
